Measurements reported in patent US20260232640A1, “COMPOSITIONS AND METHODS FOR TREATING SPINAL MUSCULAR ATROPHY” (NMD Pharma A/S, priority 2023, published 2026).
“Also recorded” adds a separate entry of the source.

Experiments:
[1] = tested on: SMA (delta-7 mouse) animals; assay: RotaRod test (latency to fall) in SMA model; format: in vivo; details: 20 mg/kg IP; for latency to fall / running test, result in words: before vs 90 min after dosing
Method: (§1) The employed model of SMA is a genetic knock-in model of severe SMA (“delta-7 mouse”). This model was developed in The Ohio State University laboratories (Foust et al, 2010). In this study the mice were administered at post-natal day 2 via intracerebroventricular injection 40 μg of morpholino ASOs directed against ISS-N1 to increase full-length SMN protein production from SMN2 to allow the animal to live to about 90 days. Five animals aged 67 days were investigated in a study where 20 mg/kg CIC-1 inhibitor ((S)-2-(4-bromo-2-ethynylphenoxy)propionic acid) in phosphate buffered saline was administered intraperitoneally and subjected to a rotarod test battery 90 minutes after injection (single intervention) and CMAP recording 120 min after injection.
RotaRod (Harward apparatus, MA, USA) were used to explore the physical capabilities of the SMA mouse model in vivo and examined coordination ability of legs and endurance on a horizontal accelerating, rotating rod. The RotaRod test was designed to start at a low revolution rate of 5 rpm of the horizontal roll and accelerate gradually to 45 rpm over 300 seconds (maximal test time). Animals were acclimatized and trained for several weeks prior to intervention, to avoid training bias. […] This was performed prior to dosing, and then 90 min after IP dosing of 20 mg/kg of the CIC-1inhibitor.

[2] = tested on: SMA (delta-7 mouse) animals; assay: Compound Muscle Action Potentials (CMAP) decrement, repeated sciatic nerve stimulation (EMG); format: in vivo; details: for CMAP decrement, result in words: 10 to 50 Hz, before vs after treatment, significant from 20 to 50 Hz only; for CMAP Decrement % (10th/1st Stimulation): 20 mg/kg IP, 120 min after dosing
Method: as §1
Compound Muscle Action Potentials (CMAP) measurements were performed as previously described (Arnold et al, 2015). Briefly, the right sciatic nerve was stimulated with a pair of insulated 28-gauge monopolar needles (Teca, Oxford Instruments Medical, NY) placed in proximity to the sciatic nerve in the proximal hind limb. Recording electrodes consisted of a pair of fine ring wire electrodes (Alpine Biomed, Skovlunde, Denmark). The active recording electrode was placed distal to the knee joint over the proximal portion of the triceps surae muscle and the reference electrode over the metatarsal region of the foot. A disposable strip electrode (Carefusion, Middleton, WI) was placed on the contralateral hind limb to serve as the ground electrode. Data collection and analysis was performed using Cadwell Sierra Summit EMG unit (Cadwell laboratories, Kennewick, Washington, USA). Animals were stimulated in trains of 10 pulses of 50 μs at supramaximal voltage at 10, 20, 30, 40 and 50 Hz, with 10 seconds between stimulation trains.
This was performed prior to dosing, and then 120 min after IP dosing of 20 mg/kg of the CIC-1inhibitor. The relative amplitude from the 10th to the 1st stimulation is denoted as decrement, and a larger negative number designates a larger deficit/decrement, indicating a larger transmission failure from nerve to muscle.

[3] = tested on: SMA (delta-7 mouse) animals; assay: Tolerability after intraperitoneal injection in SMA model; format: in vivo; details: 20 mg/kg intraperitoneally, five animals
Method: as §1

[4] = Tablet dissolution (USP2 paddles, HPLC); format: physicochemical; details: immediate release tablets; USP2 paddles 75 RPM, 900 ml dissolution media pH 6.8, 37° C.; after a maximum of 60 minutes
Method: Tablet dissolution was determined as follows.
Dissolution Media pH 6.8 was prepared by dissolving 27.3 g Na2HPO4·2H2O and 4.9 g Citric Acid in 1 L Milli-Q water. The pH was measured and adjusted if necessary to pH 6.8.
900 mL of dissolution media pH 6.8 was accurately transferred into each dissolution vessel. The apparatus was assembled, and the dissolution media was heated to 37° C.±0.5° C. The T=0 point was extracted from each vessel prior to dropping the tablets into the dissolution vessels. One tablet was gently dropped into each dissolution vessel, and rotation of the paddle was immediately started. Samples were taken that the sample extraction timepoints and analysed using the HPLC method.

[5] = Phase I clinical trial Part A, single dose pharmacokinetics in plasma; format: in vivo, human
Method: • Collect blood (3 mL recommended) onto wet ice (K2EDTA tubes) • Immediately cool blood on crushed wet ice for maximum of 30 minutes • Harvest plasma as quickly as possible using refrigerated centrifuge by centrifuging at 2000 g for 10 minutes at 4° C. • Keep plasma on wet ice and immediately stabilise with 1:1 (v/v) addition of Water: Orthophosphoric Acid (100:2 v/v) prepared using ≥85% orthophosphoric acid and deionised water (e.g. 750 μL plasma+750 μL stabiliser). • Mix sample thoroughly. • Keep the stabilised plasma on wet ice during subsequent steps. • Divide the stabilised plasma into 5×250 μL aliquots in plastic cryotubes. • Store aliquots at nominal −70° C./−80° C. promptly.
• 1. Thaw frozen calibration standards, QC samples, blank matrix and study samples on wet ice. • 2. Vortex-mix all samples thoroughly. • 3. On wet ice aliquot 150 μL of calibration standards, QC samples, study samples, and blanks into a 2 mL 96-well plate. For the reagent blank add the same volume of Water. • 4. On wet ice add 25 μL of Methanol:Water (50:50) to wells containing blanks and the same volume of ISTD intermediate solution to all other wells. • 5. On wet ice add 125 μL of Water to each well. […] Condition SPE plate with 250 μL of Water. • 9. Load 250 μL of the sample onto the SPE plate (aspirate from the rim of the cone to avoid any debris collected at the bottom of the well). […]

healthy volunteers = assay: Phase I clinical trial Part A, tolerability/safety (adverse events); format: in vivo, human

In the case of C#Cc1cc(Br)ccc1O[C@@H](C)C(=O)O [CIC-1 inhibitor, (S)-2-(4-bromo-2-ethynylphenoxy)propionic acid], the “Time for remaining on rotor rod” value ([1]; 90 min after dosing, delta-7 mice aged 67 days, pre-treatment 62.2 ± 40.2) is reported as 81 ± 63.2 s, the “latency to fall / running test, result in words” value [1] is reported as “All animals were able to stay on the rotating rod longer after treatment; also recorded: performed better in the running test” and the “latency to fall / running test, result in words” value ([1]; listed as CIC-1inhibitor) is reported as “All animals were able to stay on the rotating rod longer after treatment”. The “CMAP decrement, result in words” value [2] was “only minimal decrement visible; also recorded: less pronounced in all animals at all frequencies; also recorded: reduced decrement in EMG (RNS) at all tested frequencies”, the “CMAP decrement, result in words” value ([2]; listed as CIC-1inhibitor) was “less pronounced in all animals at all frequencies” and the improvement in decrement ([2]; at 50 Hz, mouse model of SMA) was 75%. The “CMAP Decrement % (10th/1st Stimulation)” value ([2]; stimulation frequency 10 Hz) was −7.0 ± 5.4%, the “CMAP Decrement % (10th/1st Stimulation)” value ([2]; stimulation frequency 20 Hz) was −8.1 ± 5.1% and the “CMAP Decrement % (10th/1st Stimulation)” value ([2]; stimulation frequency 30 Hz) was −8.4 ± 6.0%. For the same compound, the “CMAP Decrement % (10th/1st Stimulation)” value ([2]; stimulation frequency 40 Hz) was −8.9 ± 4.9%, the “CMAP Decrement % (10th/1st Stimulation)” value ([2]; stimulation frequency 50 Hz) was −7.7 ± 6.5% and the “adverse reactions to the compound injection” value [3] was “did not exhibit any adverse reactions to the compound injection, nor any signs of muscle stiffness”.

In the case of C[C@H](Oc1ccc(Br)cc1-c1ccon1)C(=O)O [NMD670, (2S)-2-[4-bromo-2-(1,2-oxazol-3-yl)phenoxy]propanoic acid], the “NMD670 released from the tablets” value [4] is reported as “Not less than 80%”, the half-life ([5]; plasma, oral, human, stated in rationale for washout period) is reported as about 4 h and the “T1/2 (mean ± SD, hr)” value ([5]; single oral dose 100 mg, healthy male subjects) is reported as 5.07 ± 0.63 h. The “adverse event that stopped dose escalation” value (healthy volunteers; 1600 mg, dose level 7, spontaneously and fully resolved within hours) was “myotonia of moderate intensity observed in one subject”, the subject discontinuations (healthy volunteers; Part A) was “no subject discontinuations” and the “total number of AEs reported” value (healthy volunteers; Part A, 35 healthy subjects, single doses) was 70. The “intensity of AEs” value (healthy volunteers; except one AE of myotonia (1600 mg) and tooth extraction (unrelated, 50 mg), moderate) was “Most AEs were mild”, the “dose-related AE” value (healthy volunteers; highest dose levels tested (1200 mg and 1600 mg), single dose) was “transient myotonia” and the “number of AEs at least possibly drug related” value (healthy volunteers; of 70 AEs, Part A) was 47. For the same compound, the “share of AEs at least possibly drug related” value (healthy volunteers; of 70 AEs, Part A) was 67% and the “serious or severe adverse effects” value (healthy volunteers; single doses 50 to 1600 mg, 35 healthy subjects) was “No serious or severe adverse effects were reported”.
